The results in this text go back to paper PMC4703832, “Haem-activated promiscuous targeting of artemisinin in Plasmodium falciparum” (Nature Communications, 2015).

One test addresses T1, PyrK (pyruvate kinase) (Plasmodium falciparum, UniProt C6KTA4).
T1 construct: gene PF3D7_0626800
T1 sequence (C6KTA4 1-511): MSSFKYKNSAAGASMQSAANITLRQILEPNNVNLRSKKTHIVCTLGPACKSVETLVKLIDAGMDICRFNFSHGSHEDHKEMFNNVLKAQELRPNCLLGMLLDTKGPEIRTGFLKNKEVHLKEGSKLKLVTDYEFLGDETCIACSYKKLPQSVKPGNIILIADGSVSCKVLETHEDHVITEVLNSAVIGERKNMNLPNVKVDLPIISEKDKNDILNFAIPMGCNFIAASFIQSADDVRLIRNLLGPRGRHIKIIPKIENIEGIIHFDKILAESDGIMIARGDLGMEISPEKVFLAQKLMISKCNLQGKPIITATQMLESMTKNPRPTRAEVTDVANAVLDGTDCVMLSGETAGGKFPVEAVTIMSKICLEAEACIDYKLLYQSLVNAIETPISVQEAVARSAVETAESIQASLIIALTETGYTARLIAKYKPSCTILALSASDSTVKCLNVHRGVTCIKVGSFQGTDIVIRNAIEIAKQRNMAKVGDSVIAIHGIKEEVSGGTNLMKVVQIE
The test can be described thus: pyruvate kinase inhibition assay, absorbance at […] nm. The format is biochemical. To be noted: 0-80 uM artesunate, haemin 200 uM and L-ascorbic acid 200 uM, 4 h preincubation at 37 °C; covalent, haem-activated.

Test [1] addresses T2, LDH (L-lactate dehydrogenase) (Plasmodium falciparum, UniProt Q76NM3).
T2 construct: gene PF3D7_1324900; gene amplified from 3D7 genomic DNA, pET28a, E. coli BL21(DE3)-star, Ni-NTA purified
Description: LDH inhibition assay, absorbance at […] nm. The format is biochemical. To be noted: 0-80 uM artesunate, haemin 200 uM and L-ascorbic acid 200 uM, 4 h preincubation at 37 °C; covalent, haem-activated.

T2 sequence (Q76NM3 1-316): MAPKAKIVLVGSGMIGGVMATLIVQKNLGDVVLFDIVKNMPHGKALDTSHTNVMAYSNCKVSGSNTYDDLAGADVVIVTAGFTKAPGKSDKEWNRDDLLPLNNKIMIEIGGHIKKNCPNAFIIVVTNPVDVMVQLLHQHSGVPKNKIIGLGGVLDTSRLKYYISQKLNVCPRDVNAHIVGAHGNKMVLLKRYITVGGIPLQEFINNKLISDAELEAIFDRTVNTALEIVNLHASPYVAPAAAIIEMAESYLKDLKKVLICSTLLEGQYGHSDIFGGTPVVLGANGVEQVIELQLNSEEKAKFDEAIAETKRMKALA

Consider `C[C@H]1[C@H](OC(=O)CCC(=O)O)O[C@@H]2O[C@@]3(C)CC[C@H]4[C@H](C)CC[C@@H]1[C@@]24OO3` [Arts, artesunate], for which the dose-dependent inhibition entry (on PyrK (pyruvate kinase); in test [1]) was “Functional assays showed that artesunate inhibits their enzymatic activities in a dose-dependent manner” each time.
